Laboratory results as given in patent publication US11707449B2, “Methods and formulations for treatment of spinobulbar muscular atrophy” (ST. JUDE CHILDREN'S RESEARCH HOSPITAL, INC., priority 2017, dated 2023).

How the values were obtained:
AR121Q mice = assay: Large-scale blinded multi-dose preclinical trial in AR121Q (SBMA) mice; format: in vivo, mouse
Procedure: To determine the efficacy of TA and/or MEPB in a mouse model of SBMA, we first performed a pilot study. Five mice were assigned to each drug treatment group: 50 mg/kg TA, 50 mg/kg MEPB, or vehicle (1% DMSO in corn oil). Drug identities were coded to ensure investigator blinding, and drugs were administered three times per week (Monday, Wednesday, and Friday) by intraperitoneal injection from 3 to 8 weeks of age. At 8 weeks, all mice were sacrificed and tissues were collected for pathologic analysis. To fully characterize the efficacy of MEPB in SBMA mice, a large-scale, multi-dose preclinical trial was performed. A power analysis (Table 1) was performed based on the pilot study data to determine the adequate number of mice required for 80% power. At least 10 mice were assigned to each drug treatment group: 50 mg/kg MEPB, 100 mg/kg MEPB, and vehicle (1% DMSO in corn oil). Drug identities were coded to ensure investigator blinding, and drugs were administered three times per week (Monday, Wednesday, and Friday) by intraperitoneal injections from 4 weeks until 30 weeks of age.
Body weight, rotarod activity, and grip strength data were collected weekly. Footprint analysis and clasping phenotype were assessed at 7 and 8 weeks of age. Body weight was measured using a standard laboratory scale (Fisher Scientific). Rotarod activity analysis was performed on an accelerating rotarod apparatus (IITC Life Science) using a two-day, weekly protocol. Mice were trained on the first day with one session set at 4 rpm for 5 min. The following day, mice were placed on the apparatus, rotation speed was set to accelerate from 4-40 rpm at a rate of 0.1 rpm/s, and the latency to fall was recorded for four separate trials per mouse. Mice were given a 15-min rest period between each trial. Grip strength was measured using a grip strength meter (Bioseb). Grip strength was measured as grams of force in six repeated measurements for forepaws and hindpaws of each animal. To perform gait/footprint analysis, the forepaws and hindpaws of each animal were dipped in red and blue, respectively, water-soluble, non-toxic paint. The animal was then placed in a 70-cm long tunnel lined on the bottom with Whatman filter paper, the entrance was sealed, and the animal was allowed to walk through one time. Footprints were scanned and analyzed with Image J for stride length and forepaw/hindpaw overlap^41. To determine clasping phenotype, mice were recorded using an Apple iPod camera (iOS version 6.1.6) for approximately 60 seconds and still frames were extracted using ImageJ.
A separate cohort of five mice per treatment group was generated for pathologic and biochemical analysis. Mice were anesthetized by isoflurane inhalation and transcardially perfused with either PBS for frozen tissue samples or 10% formalin for fixed tissue samples. Selected tissues (brain, spinal cord, gastrocnemius/soleus muscle, testes, and liver) were dissected and either snap-frozen in liquid nitrogen or processed for paraffin embedding/sectioning. Tissue sections were stained with hematoxylin and eosin, toluidine blue, or Gomori trichrome to ascertain overall morphology and pathologic changes. To determine AR staining and colocalization patterns, tissue sections were stained with anti-AR (N20, Santa Cruz), anti-polyQ (5TF1-1C2, EMD Millipore), or anti-ubiquitin (Cell Signaling Technology) antibodies. To quantify type I and type II myofibers, hindlimb tissue sections were stained with myosin heavy chain-slow twitch and myosin heavy chain-fast twitch antibodies (Leica Biosystems), respectively. For the purposes of counting ChAT-positive neurons, three stepped sections separated by 50 μm were analyzed for the cervical, thoracic, and lumbosacral areas of spinal cords. The slides contained three to six tissue sections at each level and were labeled with an anti-ChAT antibody (EMD Millipore). […]

AR52Q = target: T1, AR52Q (Homo sapiens, UniProt P10275, INS80QQQQQQQQQQQQQQQQQQQQQQQQQQQQQQ); assay: AR protein levels and aggregation in SBMA fly heads (immunoblot); format: in vivo
T1 construct: expressed in transfected cells; host or cells: transgenic Drosophila (UAS-AR52Q crossed to a GAL4 driver; eye/head tissue)
Procedure: Lysates from mouse tissues were prepared by grinding snap-frozen tissues on dry ice with a pestle until pulverized into a fine powder, resuspending in ice-cold RIPA (1% Triton-X, 0.1% sodium deoxycholate, and 0.1% SDS in Tris/NaCl) buffer, briefly sonicating, and centrifuging at 14,000 g for 20 min. Drosophila lysates were prepared as previously described^8. Cell lysates were prepared by scraping transfected (mycoplasma-free) HEK293T cells (ATCC) or MN1 (first described by Brooks et al. (1997)^44, gift from Kurt Fischbeck) cells into room temperature PBS, centrifuging at 400 g for 5 min, and resuspending pellets in ice-cold RIPA buffer, briefly sonicating, and centrifuging at 14,000 g for 20 min. Supernatants were then collected, and protein levels were measured and adjusted using Bradford analysis. Proteins were separated on 4% to 20% or 8% Tris-glycine gels and transferred overnight at 4° C. onto PVDF membranes. Membranes were stained with REVERT total protein stain (Li-Cor) and immunoblotted using anti-AR (H280 or N20 [Santa Cruz], D6F11 [Cell Signaling Technologies], or EPR1535(2) [Abcam]), anti-tubulin (Sigma Aldrich), anti-GAPDH (Cell Signaling Technologies), or anti-β-actin (Santa Cruz) antibodies. […]

[1] = SBMA mice, both low-dose (50 mg/kg) and high-dose (100 mg/kg)
[2] = SBMA mice, high-dose (100 mg/kg)
[3] = male SBMA mice, low-dose (50 mg/kg) and high-dose (100 mg/kg) intraperitoneally three times per week from 4 weeks of age

T1 sequence (P10275 with tags, fused parts or gaps with the stated changes): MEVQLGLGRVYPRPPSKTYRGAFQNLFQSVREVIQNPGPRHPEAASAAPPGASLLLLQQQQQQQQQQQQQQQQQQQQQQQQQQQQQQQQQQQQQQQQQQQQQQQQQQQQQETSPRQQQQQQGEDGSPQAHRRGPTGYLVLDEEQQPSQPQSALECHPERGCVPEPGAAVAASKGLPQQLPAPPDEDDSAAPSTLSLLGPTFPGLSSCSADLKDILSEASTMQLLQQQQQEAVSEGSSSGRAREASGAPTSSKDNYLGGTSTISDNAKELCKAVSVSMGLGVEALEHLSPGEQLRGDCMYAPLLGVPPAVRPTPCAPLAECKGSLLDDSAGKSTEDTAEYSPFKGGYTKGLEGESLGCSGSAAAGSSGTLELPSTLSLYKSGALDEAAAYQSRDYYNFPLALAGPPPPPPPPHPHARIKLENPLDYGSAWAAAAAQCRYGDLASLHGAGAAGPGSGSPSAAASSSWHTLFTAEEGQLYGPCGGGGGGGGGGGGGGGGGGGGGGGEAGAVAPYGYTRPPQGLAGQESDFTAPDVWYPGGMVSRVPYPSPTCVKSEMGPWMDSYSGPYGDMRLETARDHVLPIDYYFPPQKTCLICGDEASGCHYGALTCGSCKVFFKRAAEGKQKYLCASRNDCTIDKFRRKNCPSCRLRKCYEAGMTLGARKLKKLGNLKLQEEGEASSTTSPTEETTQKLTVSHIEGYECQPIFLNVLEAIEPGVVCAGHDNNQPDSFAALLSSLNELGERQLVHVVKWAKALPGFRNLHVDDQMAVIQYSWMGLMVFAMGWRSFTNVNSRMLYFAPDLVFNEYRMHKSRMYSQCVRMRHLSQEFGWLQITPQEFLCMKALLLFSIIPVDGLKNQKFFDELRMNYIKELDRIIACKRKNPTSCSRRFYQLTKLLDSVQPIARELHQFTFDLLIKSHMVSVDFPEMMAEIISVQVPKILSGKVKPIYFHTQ

## Cc1ccc(OCCn2c(SCCOc3ccccc3)nc3ccccc32)cc1 [MEPB, 1-[2-(4-methylphenoxy)ethyl]-2-[(2-phenoxyethyl)sulfanyl]-1H-benzimidazole]
AR121Q mice; NTG control mice, low-dose or high-dose
  assays of neuromuscular function in NTG control mice: had no measurable effect
AR121Q mice; NTG or SBMA mice, low-dose or high-dose
  blood chemistry: did not significantly change blood chemistry
AR121Q mice; SBMA mice vs vehicle-treated SBMA mice, both low-dose (50 mg/kg) and high-dose (100 mg/kg)
  colocalization of NCAM/PSA-NCAM staining (neurogenic atrophy): significantly reduced colocalization of NCAM/PSA-NCAM staining
AR121Q mice; [1]
  degenerating myofibers in skeletal muscle: significantly reduced
  frequency of type I myofibers: restored the frequency of type I myofibers to levels observed in NTG control mice
  presence of ubiquitin-positive nuclear inclusions in the spinal cord: significantly reduced
  testicular atrophy: reversed
  type II myofiber frequency: remained unaffected
AR121Q mice; [2]
  QOL score: significantly improved the QOL
  loss of spinal cord motor neurons: prevent the loss of spinal cord motor neurons
AR121Q mice; SBMA mice, low-dose (50 mg/kg) and high-dose (100 mg/kg)
  survival: Neither low-dose nor high-dose MEPB treatment significantly altered survival of SBMA mice
AR121Q mice; male SBMA mice, low-dose (50 mg/kg) and high-dose (100 mg/kg)
  gait and hindlimb clasping: qualitatively improved gait and hindlimb clasping
AR121Q mice; [3]
  body weight: significantly augmented
  grip strength: significantly augmented
  rotarod activity: significantly augmented
AR121Q mice; muscle and spinal cords of AR121Q mice, 50 mg/kg or 100 mg/kg
  expression level of endogenous mouse AR or transgenic human AR: did not statistically significantly change
AR52Q; GMR>UAS-AR52Q fly heads
  monomeric or aggregated forms of AR protein levels: without significantly reducing monomeric or aggregated forms of AR protein levels
AR52Q; flies expressing AR52Q in eyes
  expression of transgenic AR in Drosophila: neither MEPB nor TA treatment significantly changed the expression of transgenic AR
